Laboratory results as given in patent US20050004186A1, “MEK inhibiting compounds” (Pfizer Inc, priority 2002, published 2005).

Test system: MEK
Test: Cellular assay for measuring MEK inhibition, C26CPA1 (inhibition of ERK phosphorylation in C26 cells)
Assay type: cell-based, murine
Details: for IC50: murine colon 26 (C26) carcinoma cells, one hour at 37 C; for C26CPA1 % Inhibition @ 0.1 μM / C26CPA1 % Inhibition @ 1 μM: C26 cells
Method: Cellular Assay for Measuring MEK Inhibition
MEK inhibitors were evaluated by determining their ability to inhibit phosphorylation of MAP kinase (ERK) in murine colon 26 (C26) carcinoma cells. Since ERK1 and ERK2 represent the only known substrates for MEK1 and MEK2, the measurement of inhibition of ERK phosphorylation in cells provides direct read out of cellular MEK inhibition by the compounds of the invention. Detection of phosphorylation of ERK was carried out either by Western blot or ELISA format. Briefly, the assays involve treatment of exponentially growing C26 cells with varying concentrations of the test compound (or vehicle control) for one hour at 37≡ C. For Western blot assay, cells were rinsed free of compound/vehicle and lysed in a solution containing 70 mM NaCl, 50 mM glycerol phosphate, 10 mM HEPES, […], 1% Triton X-100, 1 mM Na3VO4, 100 μM PMSF, 10 μM leupeptin and 10 μM pepstatin. Supernatants were then subjected to gel electrophoresis and hybridized to a primary antibody recognizing dually phosphorylated ERK1 and ERK2. To evaluate total MAPK levels, blots were subsequently ‘stripped’ and re-probed with a 1:1 mixture of polyclonal antibodies recognizing unphosphorylated ERK1 and ERK2. For pERK ELISA assay, pERK TiterZyme Enzyme immunometric Assay kits were acquired from Assay Designs, Inc (Ann Arbor, Mich.). Briefly, cells were harvested in lysis solution containing 50 mM β-glycerophosphate, 10 mM HEPES, pH7.4, 70 mM NaCl, 2 mM EDTA and 1% SDS and protein lysates were diluted 1:15 with supplied Assay buffer prior to the execution of the assay. The subsequent steps were carried out essentially as recommended by the manufacturer.

Compound	IC50	C26CPA1 % Inhibition @ 0.1 μM	C26CPA1 % Inhibition @ 1 μM
Nc1nnc(-c2cc(Cl)c(F)c(F)c2Nc2ccc(I)cc2F)o1 [Example 2, 5-[5-Chloro-3,4-difluoro-2-(2-fluoro-4-iodo-phenylamino)-phenyl]-[1,3,4]oxadiazol-2-ylamine]	18 nM	–	–
Nc1nnc(-c2ccc(F)c(F)c2Nc2ccc(Br)cc2F)o1 [Example 3, 5-[2-(4-Bromo-2-fluoro-phenylamino)-3,4-difluoro-phenyl]-[1.3,4]oxadiazol-2-ylamine]	140 nM	–	–
Fc1cc(I)ccc1Nc1c(-c2nnc(NCCCN3CCOCC3)o2)ccc(F)c1F [Example 9, {5-[3,4-Difluoro-2-(2-fluoro-4-iodo-phenylamino)-phenyl]-[1,3,4]oxadiazol-2-yl}-(3-morpholin-4-yl-propyl)-amine]	311 nM	–	–
CN(C)CCCN(C)c1nnc(-c2ccc(F)c(F)c2Nc2ccc(I)cc2F)o1 [Example 12, N-{5-[3,4-Difluoro-2-(2-fluoro-4-iodo-phenylamino)-phenyl]-[1,3,4]oxadiazol-2-yl}-N,N′,N′-trimethyl-propane-1,3-diamine]	> 1000 nM	–	–
Fc1cc(I)ccc1Nc1c(-c2nnc(NCCN3CCCCC3)o2)ccc(F)c1F [Example 13, {5-[3,4-Difluoro-2-(2-fluoro-4-iodo-phenylamino)-phenyl]-[1,3,4]oxadiazol-2-yl}-(2-piperidin-1-yl-ethyl)-amine]	382 nM	–	–
NCCCCNc1nnc(-c2ccc(F)c(F)c2Nc2ccc(I)cc2F)o1 [Example 14, N′1′-{5-[3,4-Difluoro-2-(2-fluoro-4-iodo-phenylamino)-phenyl]-[1,3,4]oxadiazol-2-yl}-butane-1,4-diamine]	45 nM	–	–
NCCCNc1nnc(-c2ccc(F)c(F)c2Nc2ccc(I)cc2F)o1 [Example 15, N′1′-{5-[3,4-Difluoro-2-(2-fluoro-4-iodo-phenylamino)-phenyl]-[1,3,4]oxadiazol-2-yl}-propane-1,3-diamine]	76 nM	–	–
CN(C)CCCNc1nnc(-c2ccc(F)c(F)c2Nc2ccc(I)cc2F)o1 [Example 16, N-{5-[3,4-Difluoro-2-(2-fluoro-4-iodo-phenylamino)-phenyl]-[1,3,4]oxadiazol-2-yl}-N′,N′-dimethyl-propane-1,3-diamine]	136 nM	–	–
CN(C)CCNc1nnc(-c2ccc(F)c(F)c2Nc2ccc(I)cc2F)o1 [Example 17, N-{5-[3,4-Difluoro-2-(2-fluoro-4-iodo-phenylamino)-phenyl]-[1,3,4]oxadiazol-2-yl}-N′,N′-dimethyl-ethane-1,2-diamine]	140 nM	–	–
CNCCNc1nnc(-c2ccc(F)c(F)c2Nc2ccc(I)cc2F)o1 [Example 18, N-{5-[3,4-Difluoro-2-(2-fluoro-4-iodo-phenylamino)-phenyl]-[1,3,4]oxadiazol-2-yl}-N′-methyl-ethane-1,2-diamine]	27 nM	–	–
COCCCNc1nnc(-c2ccc(F)c(F)c2Nc2ccc(I)cc2F)o1 [Example 20, {5-[3,4-Difluoro-2-(2-fluoro-4-iodo-phenylamino)-phenyl]-[1,3,4]oxadiazol-2-yl}-(3-methoxy-propyl)-amine]	80 nM	–	–
COCCNc1nnc(-c2ccc(F)c(F)c2Nc2ccc(I)cc2F)o1 [Example 33, {5-[3,4-Difluoro-2-(2-fluoro-4-iodo-phenylamino)-phenyl]-[1,3,4]oxadiazol-2-yl}-(2-methoxy-ethyl)-amine]	–	0%	57.7%
Fc1cc(I)ccc1Nc1c(-c2nnc(NCCOc3ccccc3)o2)ccc(F)c1F [Example 34, {5-[3,4-Difluoro-2-(2-fluoro-4-iodo-phenylamino)-phenyl]-[1,3,4]oxadiazol-2-yl}-(2-phenoxy-ethyl)-amine]	–	0%	69%
Fc1cc(I)ccc1Nc1c(-c2nnc(NCCc3ccncc3)o2)ccc(F)c1F [Example 35, {5-[3,4-Difluoro-2-(2-fluoro-4-iodo-phenylamino)-phenyl]-[1,3,4]oxadiazol-2-yl}-(2-pyridin-4-yl-ethyl)-amine]	–	0%	74.9%
CCCCNc1nnc(-c2ccc(F)c(F)c2Nc2ccc(I)cc2F)o1 [Example 36, Butyl-{5-[3,4-difluoro-2-(2-fluoro-4-iodo-phenylamino)-phenyl]-[1,3,4]oxadiazol-2-yl}-amine]	–	23.8%	67%
Cc1ccc(CNc2nnc(-c3ccc(F)c(F)c3Nc3ccc(I)cc3F)o2)o1 [Example 37, {5-[3,4-Difluoro-2-(2-fluoro-4-iodo-phenylamino)-phenyl]-[1,3,4]oxadiazol-2-yl}-(5-methyl-furan-2-ylmethyl)-amine]	–	18.4%	87.2%
Fc1cc(I)ccc1Nc1c(-c2nnc(NCCc3cccs3)o2)ccc(F)c1F [Example 38, {5-[3,4-Difluoro-2-(2-fluoro-4-iodo-phenylamino)-phenyl]-[1,3,4]oxadiazol-2-yl}-(2-thiophen-2-yl-ethyl)-amine]	–	0%	65.1%
COc1cccc(CCNc2nnc(-c3ccc(F)c(F)c3Nc3ccc(I)cc3F)o2)c1 [Example 39, {5-[3,4-Difluoro-2-(2-fluoro-4-iodo-phenylamino)-phenyl]-[1,3,4]oxadiazol-2-yl}-[2-(3-methoxy-phenyl)-ethyl]-amine]	–	0%	40.2%
COc1ccc(CCNc2nnc(-c3ccc(F)c(F)c3Nc3ccc(I)cc3F)o2)cc1OC [Example 40, {5-[3,4-Difluoro-2-(2-fluoro-4-iodo-phenylamino)-phenyl]-[1,3,4]oxadiazol-2-yl}-[2-(3,4-dimethoxy-phenyl)-ethyl]-amine]	–	0%	26.2%
COc1ccc(OC)c(CCNc2nnc(-c3ccc(F)c(F)c3Nc3ccc(I)cc3F)o2)c1 [Example 41, {5-[3,4-Difluoro-2-(2-fluoro-4-iodo-phenylamino)-phenyl]-[1,3,4]oxadiazol-2-yl}-[2-(2,5-dimethoxy-phenyl)-ethyl]-amine]	–	0%	29.8%
COc1ccc(CCN(C)c2nnc(-c3ccc(F)c(F)c3Nc3ccc(I)cc3F)o2)cc1OC [Example 42, {5-[3,4-Difluoro-2-(2-fluoro-4-iodo-phenylamino)-phenyl]-[1,3,4]oxadiazol-2-yl}-[2-(3,4-dimethoxy-phenyl)-ethyl]-methyl-amine]	–	8.3%	10%
CN(CCc1ccncc1)c1nnc(-c2ccc(F)c(F)c2Nc2ccc(I)cc2F)o1 [Example 43, {5-[3,4-Difluoro-2-(2-fluoro-4-iodo-phenylamino)-phenyl]-[1,3,4]oxadiazol-2-yl}-methyl-(2-pyridin-4-yl-ethyl)-amine]	–	26.6%	31.7%
CN(CCc1ccccn1)c1nnc(-c2ccc(F)c(F)c2Nc2ccc(I)cc2F)o1 [Example 44, {5-[3,4-Difluoro-2-(2-fluoro-4-iodo-phenylamino)-phenyl]-[1,3,4]oxadiazol-2-yl}-methyl-(2-pyridin-2-yl-ethyl)-amine]	–	5.2%	19%
CCCNc1nnc(-c2ccc(F)c(F)c2Nc2ccc(I)cc2F)o1 [Example 45, {5-[3,4-Difluoro-2-(2-fluoro-4-iodo-phenylamino)-phenyl]-[1,3,4]oxadiazol-2-yl}-propyl-amine]	–	3.1%	31.4%
CCC(C)Nc1nnc(-c2ccc(F)c(F)c2Nc2ccc(I)cc2F)o1 (centres unmarked) [Example 46, sec-Butyl-{5-[3,4-difluoro-2-(2-fluoro-4-iodo-phenylamino)-phenyl]-[1,3,4]oxadiazol-2-yl}-amine]	–	31.2%	31.6%
CC(C)(C)CNc1nnc(-c2ccc(F)c(F)c2Nc2ccc(I)cc2F)o1 [Example 47, {5-[3,4-Difluoro-2-(2-fluoro-4-iodo-phenylamino)-phenyl]-[1,3,4]oxadiazol-2-yl}-(2,2-dimethyl-propyl)-amine]	–	18.9%	43.2%
CC(C)CNc1nnc(-c2ccc(F)c(F)c2Nc2ccc(I)cc2F)o1 [Example 48, {5-[3,4-Difluoro-2-(2-fluoro-4-iodo-phenylamino)-phenyl]-[1,3,4]oxadiazol-2-yl}-isobutyl-amine]	–	31.7%	66.9%
CC(Nc1nnc(-c2ccc(F)c(F)c2Nc2ccc(I)cc2F)o1)C(C)(C)C (centres unmarked) [Example 49, {5-[3,4-Difluoro-2-(2-fluoro-4-iodo-phenylamino)-phenyl]-[1,3,4]oxadiazol-2-yl}-(1,2,2-trimethyl-propyl)-amine]	–	0%	0%
CCC(C)CNc1nnc(-c2ccc(F)c(F)c2Nc2ccc(I)cc2F)o1 (centres unmarked) [Example 50, {5-[3,4-Difluoro-2-(2-fluoro-4-iodo-phenylamino)-phenyl]-[1,3,4]oxadiazol-2-yl}-(2-methyl-butyl)-amine]	–	0%	15.2%
